Measured values taken from patent US11208387B2, “Macrocyclic broad spectrum antibiotics” (Genentech, Inc., priority 2019, dated 2021).
Values after ≈ are worked out from the molar mass of the structure shown. Where two headings read alike, the source gives them in different places.

Tests used:
[1] = tested on: isolated liver mitochondria; test: Mitochondrial oxygen consumption rate (OCR) assay; type: biochemical, Sprague-Dawley rats; conditions: isolated rat liver mitochondria, state 3 (S3) respiration
Source text: Male Sprague-Dawley rats (8-10 weeks of age) were euthanized with an overdose of carbon dioxide. The liver was rapidly excised and placed in ice-cold phosphate-buffered saline (PBS) before isolation process. Mitochondria were isolated using the MitoCheck® Mitochondrial Isolation Kit (Cayman Chemical #701010, Ann Arbor, Mich.) according to manufacturer's instructions. In brief, approximately 10-14 grams of liver tissues were finely minced using a pair of scissors, and washed repeatedly with ice-cold PBS, followed by Mito Isolation Buffer. The minced tissues were homogenized with 30 ml Mito Homogenization Buffer in 40 ml dounce homogenizer and a smooth glass grinder. The homogenate was split into two clean 30 ml polycarbonate tubes and centrifuged at 1,000×g, 4° C., for 3 minutes. The supernatant was subjected to further centrifugation at 10,000×g, 4° C., for 10 minutes. The supernatant was discarded and mitochondrial pellet was suspended in Mito Isolation Buffer using a glass stirring rod and stored on ice until use. Protein concentration of mitochondria was determined using a bicinchoninic acid protein assay kit (Thermo Scientific, Waltham, Mass.).
Oxygen consumption was monitored as essentially described by Will et al., “Analysis of mitochondrial function using phosphorescent oxygen-sensitive probes,” Nature Protocols Vol. 1(6) (2006) 2563. Briefly, isolated mitochondria (50 μg mitochondrial proteins/state 3 (S3) of mitochondrial respiration for inhibitor identification, 100 μg/S2 for uncoupler identification) were incubated with compounds in 25 μl of Measurement Buffer (MB: 250 mM sucrose, 15 mM KCl, 1 mM EGTA, 5 mM MgCl2, 30 mM K2HPO4, pH 7.4) including 1% DMSO on ice for 1 hour, then mixed with 25 μl of substrate mixture including an oxygen-sensitive phosphorescent dye (MitoXpress Xtra, Agilent, Santa Clara, Calif.), glutamate (25 mM, G1626, Sigma, St. Louis, Mo.), malate (25 mM, M6413, Sigma), ADP (3.3 mM, A2754, Sigma, only for S3 of mitochondrial respiration), Fatty acid free BSA (0.1%, A0281, Sigma), and a complex II-specific inhibitor TTFA (2 μM, T27006, Sigma for the assessment of complex I-mitochondrial respiration with glutamate/malate) in a black wall/clear bottom 384-well plate. The mixtures were covered with HS mineral oil (Agilent) using the Viaflo 384-channel pipette (Integra, Hudson, N.H.). Oxygen consumption was measured for 30 min at 30° C. using a spectrofluorimeter (FLUOstar Omega, BMG Labtech, Cary, N.C.). In S3, DMSO vehicle control and antimycin A (10 μM) were used to define 0% and 100% inhibition. In S2, DMSO vehicle and FCCP (0.5-1 μM) was used to define 0% and 100% uncoupling, respectively. Area under curve typically in a range of 0-12 min (S3) or 0-24 min (S2) was used for calculations. IC50 or UC50 (uncoupling concentration), a concentration that causes 50% of inhibition or maximal (uncoupling) activation of oxygen consumption, was used to evaluate experimental quality. Data were presented as μM (per 50 μg (S3) or 100 μg (S2) mitochondrial proteins). Compounds with IC50: <100 μM (S3) and/or UC50: <200 μM (S2) were considered as high-risk on mitochondrial toxicity. Compounds with 25-50% changes in inhibition and/or uncoupling were categorized as medium-risk, since compounds with >25% changes are considered as responders.
Toxicity associated with mitochondrial dysfunction has presented a problem for promising potential antibiotics as we as other types of therapeutics. The mitochondrial oxygen consumption rate (OCR) assay is considered a reliable indicator of potential internal organ toxicity issues that may occur with powerful antibiotics. The carboxylate compounds of the invention show unexpected lower toxicity than prior art “glycine nitrile” arylomycin analogs (see, e.g., WO 2018/149419) in the mitochondrial oxygen consumption rate (OCR) assay.

[2] = tested on: Klebsiella pneumoniae ATCC 700603; test: Serum MIC, broth micro-dilution; type: cell-based; conditions: Klebsiella pneumoniae
In short: (§1)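 Serum-shifted MIC: medium is a 1:1 v/v mix of cation-adjusted MH II broth and mouse serum. 10-point 2-fold dilution series, top 64, 4, 0.5 or 0.13 μg/mL depending on protocol. Inoculum OD600 0.0005 final; 35° C, 22 h.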

[3] = tested on: Pseudomonas aeruginosa PA01; test: Serum MIC, broth micro-dilution; type: cell-based; conditions: Pseudomonas aeruginosa, read-out: P. aeruginosa 01 Serum MIC
In short: as §1

[4] = tested on: Acinetobacter baumannii ATCC 17978; test: Serum MIC, broth micro-dilution; type: cell-based; conditions: Acinetobacter baumannii
In short: as §1

[5] = tested on: Escherichia coli strain ATCC 25922; test: Serum MIC, broth micro-dilution; type: cell-based; conditions: Escherichia coli, read-out: E. coli 25922 Serum MIC
In short: as §1

[6] = ATCC700603, 50% v/v mouse serum in Mueller Hinton II cation adjusted Broth, 35° C., 22 hours, Table 4, read-out: K pneumoniae 700603 Serum MIC
[7] = PA01, 50% v/v mouse serum in Mueller Hinton II cation adjusted Broth, 35° C., 22 hours, Table 4
[8] = ATCC17978, 50% v/v mouse serum in Mueller Hinton II cation adjusted Broth, 35° C., 22 hours, Table 4, read-out: A. baumanii 17978 Serum MIC
[9] = ATCC17978, 50% v/v mouse serum in Mueller Hinton II cation adjusted Broth, 35° C., 22 hours, Table 5, read-out: Acinetobacter baumanii 17978 Serum MIC
[10] = ATCC25922, 50% v/v mouse serum in Mueller Hinton II cation adjusted Broth, 35° C., 22 hours, Table 4
[11] = ATCC700603, 22 h, read-out: K pneumoniae 700603 Serum MIC
[12] = ATCC17978, 22 h, read-out: A. baumanii 17978 Serum MIC
[13] = ATCC17978, 22 h, read-out: Acinetobacter baumanii 17978 Serum MIC

Row | SMILES | IC50 ([1]; glutamate/malate, Table 3) | MIC [2, 6] | MIC [3, 7] | MIC [4, 8] | MIC [4, 9] | MIC [5, 10] | other results
1 | Cc1nc(-c2ccc(C(C)(C)C)cc2)nc(C)c1C(=O)N[C@@H](CNS(N)(=O)=O)C(=O)N(C)[C@@H]1C(=O)N[C@@H](C)C(=O)N[C@H](C(=O)O)Cc2ccc(OC[C@H](O)CN)c(c2)-c2cc1cc(OC[C@H](O)CN)c2O [Example 7, (8S,11S,14S)-18-hydroxy-11-methyl-14-[methyl-[(2S)-2-[[2-(4-tert-butyl-phenyl)-4,6-dimethyl-pyrimidine-5-carbonyl]amino]-3-(sulfamoylamino)-propanoyl]amino]-10,13-dioxo-3,17-bis[(2R)-3-amino-2-hydroxy-propoxy]-9,12-diazatricyclo-[13.3.1.12,6]icosa-1(18),2(20),3,5,15(19), 16-hexaene-8-carboxylic acid] | > 250 µM | 0.46 µM (≈ 0.463 µg/mL) | 4.3 µM (≈ 4.33 µg/mL) | 9.3 µM (≈ 9.37 µg/mL) | 9.3 µM (≈ 9.37 µg/mL) | 0.42 µM (≈ 0.423 µg/mL) | –
2 | Cc1nc(-c2ccc(C(C)(C)C)cc2)nc(C)c1C(=O)N[C@@H](CCN)C(=O)N(C)[C@@H]1C(=O)N[C@@H](C)C(=O)N[C@H](C(=O)O)Cc2ccc(OC[C@H](O)CN)c(c2)-c2cc1cc(OC[C@H](O)CN)c2O [Example 19, (8S,11S,14S)-18-hydroxy-11-methyl-14-[methyl-[(2S)-4-amino-2-[[2-(4-tert-butylphenyl)-4,6-dimethyl-pyrimidine-5-carbonyl]amino]-butanoyl]amino]-10,13-dioxo-3,17-bis[(2R)-3-amino-2-hydroxy-propoxyl]-9,12-diazatricyclo-[13.3.1.12,6]icosa-1(18),2(20),3,5,15(19), 16-hexaene-8-carboxylic acid] | > 250 µM | – | – | – | – | – | MIC [2, 11]: 0.25 µM (≈ 0.236 µg/mL); MIC ([3]; PA01, 22 h): 8 µM (≈ 7.54 µg/mL); MIC [4, 12]: 16 µM (≈ 15.1 µg/mL); MIC [4, 13]: 16 µM (≈ 15.1 µg/mL); MIC ([5]; ATCC25922, 22 h): 0.25 µM (≈ 0.236 µg/mL)
3 | Cc1nc(-c2ccc(C(C)(C)C)cc2)nc(C)c1C(=O)N[C@@H](CCN)C(=O)N(C)[C@@H]1C(=O)N[C@@H](C)C(=O)N[C@H](C(=O)NCC#N)Cc2ccc(O)c(c2)-c2cc1ccc2OCCN (racemic) [Example 254] | – | – | – | – | – | – | IC50 ([1]; compounds of Table 1, Table 6): 20 µM; MIC ([2]; ATCC700603, 50% v/v mouse serum, compounds of Table 1, Table 7, read-out: K. pneumoniae 700603 Serum MIC): 0.73 µM (≈ 0.629 µg/mL); MIC ([3]; PA01, 50% v/v mouse serum, compounds of Table 1, Table 7): 13 µM (≈ 11.2 µg/mL); MIC ([4]; ATCC17978, 50% v/v mouse serum, compounds of Table 1, Table 7, read-out: A. baumanii 17978 Serum MIC): 9.3 µM (≈ 8.01 µg/mL); MIC ([5]; ATCC25922, 50% v/v mouse serum, compounds of Table 1, Table 7): 0.19 µM (≈ 0.164 µg/mL)
4 | Cc1nc(-c2ccc(C(C)(C)C)cc2)nc(C)c1C(=O)N[C@@H](CN)C(=O)N(C)[C@@H]1C(=O)N[C@@H](C)C(=O)N[C@H](C(=O)O)Cc2ccc(OC[C@H](O)CN)c(c2)-c2cc1cc(OC[C@H](O)CN)c2O [Example 30, (8S,11S,14S)-18-hydroxy-11-methyl-14-[methyl-[(2S)-3-amino-2-[[2-(4-tert-butylphenyl)-4,6-dimethyl-pyrimidine-5-carbonyl]amino]-propanoyl]amino]-10,13-dioxo-3,17-bis[(2R)-3-amino-2-hydroxy-propoxy]-9,12-diazatricyclo-[13.3.1.12,6]icosa-1(18),2(20),3,5,15(19), 16-hexaene-8-carboxylic acid] | > 250 µM | 0.75 µM (≈ 0.696 µg/mL) | 16 µM (≈ 14.8 µg/mL) | 32 µM (≈ 29.7 µg/mL) | 32 µM (≈ 29.7 µg/mL) | 1 µM (≈ 0.928 µg/mL) | –
5 | Cc1nc(-c2ccc(C(C)(C)C)cc2)nc(N)c1C(=O)N[C@@H](CNS(N)(=O)=O)C(=O)N(C)[C@@H]1C(=O)N[C@@H](C)C(=O)N[C@H](C(=O)O)Cc2ccc(OC[C@H](O)CN)c(c2)-c2cc1cc(OC[C@H](O)CN)c2O [Example 2, (8S,11S,14S)-18-hydroxy-11-methyl-14-[methyl-[(2S)-2-[[4-amino-2-(4-tert-butylphenyl)-6-methyl-pyrimidine-5-carbonyl]amino]-3-(sulfamoylamino)-propanoyl]amino]-10,13-dioxo-3,17-bis[(2R)-3-amino-2-hydroxy-propoxy]-9,12-diazatricyclo-[13.3.1.12,6]icosa-1(18),2(20),3,5,15(19), 16-hexaene-8-carboxylic acid] | 261 µM | 0.5 µM (≈ 0.504 µg/mL) | 3.3 µM (≈ 3.33 µg/mL) | 11 µM (≈ 11.1 µg/mL) | 11 µM (≈ 11.1 µg/mL) | 0.5 µM (≈ 0.504 µg/mL) | –
6 | Cc1nc(-c2ccc(OC(C)C)cc2)nc(C)c1C(=O)N[C@@H](CNS(N)(=O)=O)C(=O)N(C)[C@@H]1C(=O)N[C@@H](C)C(=O)N[C@H](C(=O)O)Cc2ccc(OC[C@H](O)CN)c(c2)-c2cc1cc(OC[C@H](O)CN)c2O [Example 13, (8S,11S,14S)-18-hydroxy-11-methyl-14-[methyl-[(2S)-2-[[2-(4-isopropoxy-phenyl)-4,6-dimethyl-pyrimidine-5-carbonyl]amino]-3-(sulfamoylamino)-propanoyl]amino]-10,13-dioxo-3,17-bis[(2R)-3-amino-2-hydroxy-propoxy]-9,12-diazatricyclo-[13.3.1.12,6]icosa-1(18),2(20),3,5,15(19), 16-hexaene-8-carboxylic acid] | – | – | – | – | – | – | MIC [2, 11]: 1.5 µM (≈ 1.51 µg/mL); MIC ([3]; PA01, 22 h): 24 µM (≈ 24.2 µg/mL); MIC [4, 12]: 32 µM (≈ 32.3 µg/mL); MIC [4, 13]: 32 µM (≈ 32.3 µg/mL); MIC ([5]; ATCC25922, 22 h): 1.5 µM (≈ 1.51 µg/mL)
7 | C[C@@H]1NC(=O)[C@@H](N(C)C(=O)[C@H](CNS(N)(=O)=O)NC(=O)c2c(N)cc(-c3ccc(C(C)(C)C)cc3)nc2Cl)c2cc(OC[C@H](O)CN)c(O)c(c2)-c2cc(ccc2OC[C@H](O)CN)C[C@@H](C(=O)O)NC1=O [Example 37, (8S,11S,14S)-14-[[(2S)-2-[[4-amino-6-(4-tert-butylphenyl)-2-chloro-pyridine-3-carbonyl]amino]-3-(sulfamoylamino)-propanoyl]-methyl-amino]-3,17-bis[(2R)-3-amino-2-hydroxy-propoxy]-18-hydroxy-11-methyl-10,13-dioxo-9,12-diazatri-cyclo[13.3.1.12,6]icosa-1(18),2(20),3,5,15(19), 16-hexaene-8-carboxylic acid] | – | 0.5 µM (≈ 0.514 µg/mL) | 4 µM (≈ 4.11 µg/mL) | 8 µM (≈ 8.22 µg/mL) | 8 µM (≈ 8.22 µg/mL) | 0.5 µM (≈ 0.514 µg/mL) | –
